Assays:
Assay type in all cases: cell-based
AKT1 E17 = target: T1, AKT1 E17 (Homo sapiens, UniProt P31749, E17K); experiment: AKT plasma membrane translocation assay (AKT1 E17K-SmBiT / LCK1-LgBiT luminescence); details: KU-19-19 cells transfected with AKT1E17K-SmBIT and LCK1-LgBiT, read up to 1 hr
T1 construct: expressed in transfected cells; host or cells: KU-19-19
Protocol: AKT plasma membrane translocation assay
Seed 1.5×10^6 KU-19-19 cells in 10 cm dish. Transfect cells at 70% cell confluency with 5 ug AKTIE17K-SmBIT and 0.5 ug LCK1-LgBiT with Jet-Optimus transfection reagent. Incubate for 4-5 hours at 37c 5% CO2 TC incubator. Split and seed 10K cells in 40 ul media per well in 384 well plate and incubate over night at 37° C. CO2 free TC incubator. Add 10 ul of 5× Vivazine substrate (prepared in CO2 independent medium) to cells and shake palte to mix for 30 seconds. Read Luminescence for 100 minutes until signal is stable (1 read per minute). Add 50 nl/well of 3 uM compound stock to cells.

MDAMB468.1 = experiment: Cell Titer Glo (CTG) proliferation assay, MDA-MB-468; details: Homo sapiens, MDA-MB-468; MDAMB468.1 cells, 72.0 hrs.; read-out: AVE CTG Proliferation MDAMB468.1 72.0 hrs.
Procedure, shortened: (§1)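 After overnight seeding at 37 °C, 5% CO2, cells were exposed to compound for 3 days. Viability read by CellTiter-Glo luminescence after 30 min at room temperature.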

KU1919.1 = experiment: Cell Titer Glo (CTG) proliferation assay, KU1919; details: Homo sapiens, KU-19-19; KU1919.1 cells, 72.0 hrs.; read-out: AVE CTG Proliferation KU1919.1 72.0 hrs.
Procedure, shortened: as §1

MDAMB231.1 = experiment: Cell Titer Glo (CTG) proliferation assay, MDA-MB-231; details: Homo sapiens, MDA-MB-231; MDAMB231.1 cells, 72 hrs.; read-out: AVE CTG Proliferation MDAMB231.1 72 hrs.
Protocol: Seed cells in 40 μL of cell culture media into each well of 384-well cell culture plate, spin them at room temperature at 1,000 RPM for 1 minute and then transfer the plates into 37° C. 5% CO2 incubator overnight. Next day, treat cells with 40 nL of diluted compound and return to incubator. After compound treatment for 3 days, Add 30 μL of CellTiter-Glo reagent (Promega) into each well to be detected. Then place the plates at room temperature for 30 min followed by reading on EnVision. Inhibition activity calculated as % DMSO=100×(LumSample-Lum low control)/(Lum high control-Lum low control) where high control is from cells treated with 0.1% DMSO and Low control obtained from PBS only. Use XLFit (equation 201) to calculate IC50 (A+ ((B−A)/(1[…]((x/C)^D)))) where A: Bottom, B: Top, C: IC50, D: Slope.

AKT = AKT ubiquitination assay (TUBE pulldown, western blot); details: KU-19-19 cells, 3 uM of compound, 6 hrs
Protocol: For each assay condition. 5.0×10^6 KU-19-19 cells were seeded in 10 cm dish grown in RPMI (Invitrogen. Carlsbad. CA. USA) supplemented with 10% fetal bovine serum. Cells were incubated overnight at 37° C. in a humidified atmosphere containing 5% CO2. […]. Next day, media was removed and cells were rinsed with 0.1% FBS cell culture media. Then 10 mL of 0.1% FBS+RPMI containing 3 uM of compound was added to each plate and treated with compound for 6 hrs. Cells were washed 3× with PBS and placed on ice. 900 μL of lysis buffer (50 mM Tris-HCl pH 7.4, 150 mM NaCl. 1% NP-40, 1% Sodium deoxycholate. 2 mM EDTA, 10% Glycerol, 5 mM Iodoacetamide (dissolved in ddH2O, MCE, Cat #HY-34477), 1×HALT protease\phosphatase inhibitor (Pierce. Cat #78440), 1×PMSF (Sigma. Cat #93482-50ML-F), 5 mM 1.10 Phenanthroline (in DMSO, MCE, Cat #HY—W004544), 25 uM MG-132 (in DMSO) (MCE. Cat #HY-13259), 50 μM PR-619 (make it in DMSO) (MCE. Cat #HY-13814) and 1× Benzonase (Sigma. Cat #E8263) was added and incubated on ice for 3-5 min and then scraped and collected. Lysates were incubated on ice for 1 hr and vortexed every 15 minutes before spinning down at 14 000 g for 10 minutes. Supernatants were collected and flash frozen in Liquid nitrogen for 10 minutes and stored at −80 C until further used. Adjust volume of samples with lysis buffer to obtain 1 mg in total volume of 1 mL. Perform TUBES pulldown following manufacturer's procedure using TUBE1 (high capacity magnetic beads) (Cat #UM-0501M-1000. LifeSensors). Briefly, wash 150 μl beads per sample with 12× beads volume of PBST (0.1% Tweed-20) three times. Add 1 mL of protein lysate to beads and incubate for 4 hours rotating at 4 C. Wash 4× with 10× beads volume of lysis buffer and rotate for 3 minutes, then collect beads with magnet for 3 minutes before collecting buffer. Wash 1× with 5× beads volumes of PBS-T. Wash TUBEs with 100 μl wash buffer for 5 minutes on thermomixer set at 1400 rpm and 25 C. TUBE washing buffer/TUBE Elution buffer/TUBE Neutralization buffer (Cat #UM411. LifeSensors) Elute with 18 μl of TUBE elution buffer for 15 minutes on thermomixer set at 1400 rpm at 25 C, and then collect eluate and add 2 μl of neutralization buffer. Load 18 μl of pulldown sample and 10 μg of input samples onto gel for western blot using standard methods with following antibodies: AKT (pan) (C67E7) (CST. Cat #4691S). β-Actin antibody (Cat #A1978, sigma) (Dilution. 1:2000) Anti-rabbit IgG. HRP-linked Antibody (CST. Cat #7074S) (Dilution, 1:2000)

T1 sequence (P31749 whole entry E17K): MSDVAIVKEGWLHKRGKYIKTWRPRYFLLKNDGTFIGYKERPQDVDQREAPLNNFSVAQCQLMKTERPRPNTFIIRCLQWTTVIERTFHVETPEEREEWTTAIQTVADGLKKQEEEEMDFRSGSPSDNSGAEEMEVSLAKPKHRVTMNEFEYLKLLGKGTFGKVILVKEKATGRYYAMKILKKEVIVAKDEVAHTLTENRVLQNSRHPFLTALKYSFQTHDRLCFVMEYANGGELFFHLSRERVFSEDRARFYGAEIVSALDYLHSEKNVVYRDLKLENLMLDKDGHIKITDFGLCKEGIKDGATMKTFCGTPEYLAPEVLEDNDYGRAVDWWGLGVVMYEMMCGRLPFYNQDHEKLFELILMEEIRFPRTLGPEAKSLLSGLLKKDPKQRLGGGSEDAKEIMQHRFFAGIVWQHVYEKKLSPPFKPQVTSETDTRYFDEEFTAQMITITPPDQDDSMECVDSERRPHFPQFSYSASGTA

Reduced AKT1 E17 plasma membrane translocation relative to PBM (AKT1 E17) | IC50 (MDAMB468.1) [µM] | IC50 (MDAMB231.1) [µM] | Structure (SMILES) | IC50 (KU1919.1) [µM] | Reduced AKT ubiquitination relative to PBM (AKT)
Yes | 1 to 5 | 1 to 5 | CC(C)(C)OC(=O)N[C@@H](C(=O)N1CCC(OC2CCN(CC(=O)N3CCN(CC[C@H](NC(=O)C4(N)CCN(c5ncnc6[nH]ccc56)CC4)c4ccc(Cl)cc4)CC3)CC2)CC1)C1CCCCC1 [Compound I-312] | 1 to 5 | Yes
Yes | 1 to 5 | 1 to 5 | NC1(C(=O)N[C@@H](CCN2CCN(C(=O)CN3CCC(OC4CCN(C(=O)[C@H](NC(=O)c5cccc(C6CCCN(C(=O)C7CC7)C6)c5)C5CCCCC5)CC4)CC3)CC2)c2ccc(Cl)cc2)CCN(c2ncnc3[nH]ccc23)CC1 (some centres unmarked) [Compound I-254] | 1 to 5 | Yes
Yes |  |  | CCOc1cc(OC)ccc1CNCC(=O)N1CCCC(c2cccc(C(=O)N[C@@H](C(=O)N3CCN(CC4CCN(CC(=O)N5CCN(CC[C@H](NC(=O)C6(N)CCN(c7ncnc8[nH]ccc78)CC6)c6ccc(Cl)cc6)CC5)CC4)CC3)C3CCCCC3)c2)C1 (some centres unmarked) [Compound I-46] |  | Yes
Yes | 1 to 5 | 1 to 5 | NC1(C(=O)N[C@@H](CCN2CCN(C(=O)CN3CCC(OC4CCN(C(=O)[C@H](NC(=O)c5cccc(C6CN(C(=O)CNCc7ccc(F)cc7F)C6)c5)C5CCCCC5)CC4)CC3)CC2)c2ccc(Cl)cc2)CCN(c2ncnc3[nH]ccc23)CC1 [Compound I-242] | 0.5 to 1 | Yes

— patent US20250171465A1, “AKT INHIBITORS” (Stablix, Inc., priority 2023, published 2025)
